Measurements reported in US8912329B2 (priority 2009, dated 2014).

How the values were obtained:
[1] = tested on: Mycobacterium tuberculosis laboratory strain H37Rv; test: Growth inhibition / drug susceptibility testing of M. tuberculosis with MGIT 960 system, compounds combined with ethionamide; assay type: cell-based; parameters: key to growth inhibition of M. tuberculosis H37Rv (R/I/S): R: Resistance, no effect of combinatorial drug application; I: intermediate; S: sensitive; details: for growth inhibitory effect of compound alone on M. tuberculosis H37Rv: without ethionamide; for growth of M. tuberculosis H37Rv in the presence of sub-inhibitory ethionamide concentrations: ethionamide 0.16 and 5 μg/ml, 0.5 to 40.5 μMol compound
EthR-VP16 = EthR-VP16 (Mycobacterium bovis, UniProt Q7TVI1); test: cell-based; parameters: species or system M. bovis; details: 48 h, read-out: % EthR activity (w/o = 100%); ± std. dev. of the mean (n = 3)
[2] = Example compound 0.5 μM + ethionamide 0.16 μg/ml
[3] = Example compound 0.5 μM + ethionamide 0.31 μg/ml
[4] = Example compound 0.5 μM + ethionamide 0.625 μg/ml
[5] = Example compound 0.5 μM + ethionamide 1.25 μg/ml
[6] = Example compound 0.5 μM + ethionamide 2.5 μg/ml
[7] = Example compound 0.5 μM + ethionamide 5 μg/ml
[8] = Example compound 0.5 μM, ethionamide 0 μg/ml
[9] = Example compound 1.5 μM + ethionamide 0.16 μg/ml
[10] = Example compound 1.5 μM + ethionamide 0.31 μg/ml
[11] = Example compound 1.5 μM + ethionamide 0.625 μg/ml
[12] = Example compound 1.5 μM + ethionamide 1.25 μg/ml
[13] = Example compound 1.5 μM + ethionamide 2.5 μg/ml
[14] = Example compound 1.5 μM + ethionamide 5 μg/ml
[15] = Example compound 1.5 μM, ethionamide 0 μg/ml
[16] = Example compound 4.5 μM + ethionamide 0.16 μg/ml
[17] = Example compound 4.5 μM + ethionamide 0.31 μg/ml
[18] = Example compound 4.5 μM + ethionamide 0.625 μg/ml
[19] = Example compound 4.5 μM + ethionamide 1.25 μg/ml
[20] = Example compound 4.5 μM + ethionamide 2.5 μg/ml
[21] = Example compound 4.5 μM + ethionamide 5 μg/ml
[22] = Example compound 4.5 μM, ethionamide 0 μg/ml
[23] = Example compound 13.5 μM + ethionamide 0.16 μg/ml
[24] = Example compound 13.5 μM + ethionamide 0.31 μg/ml
[25] = Example compound 13.5 μM + ethionamide 0.625 μg/ml
[26] = Example compound 13.5 μM + ethionamide 1.25 μg/ml
[27] = Example compound 13.5 μM + ethionamide 2.5 μg/ml
[28] = Example compound 13.5 μM + ethionamide 5 μg/ml
[29] = Example compound 13.5 μM, ethionamide 0 μg/ml
[30] = Example compound 40.5 μM + ethionamide 0.16 μg/ml
[31] = Example compound 40.5 μM + ethionamide 0.31 μg/ml
[32] = Example compound 40.5 μM + ethionamide 0.625 μg/ml
[33] = Example compound 40.5 μM + ethionamide 1.25 μg/ml
[34] = Example compound 40.5 μM + ethionamide 2.5 μg/ml
[35] = Example compound 40.5 μM + ethionamide 5 μg/ml
[36] = Example compound 40.5 μM, ethionamide 0 μg/ml

Chain of EthR-VP16 (Q7TVI1 whole entry, looked up): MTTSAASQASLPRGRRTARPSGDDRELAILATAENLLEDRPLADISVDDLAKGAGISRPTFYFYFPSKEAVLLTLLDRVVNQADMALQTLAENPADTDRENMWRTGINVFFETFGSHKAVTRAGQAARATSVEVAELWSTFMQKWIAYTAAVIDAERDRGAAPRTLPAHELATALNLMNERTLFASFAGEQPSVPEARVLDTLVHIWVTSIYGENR

For O=C(CCc1ccccc1)N1CCC(c2ccccc2)C1 (stereo not drawn) [Example 16, 3-Phenyl-1-(3-phenylpyrrolidin-1-yl)propan-1-one], the “growth inhibition of M. tuberculosis H37Rv (R/I/S)” value (“growth inhibition” below) [1, 2] was “R”, the “growth inhibition” value [1, 3] was “R” and the “growth inhibition” value [1, 4] was “I”. The “growth inhibition” value [1, 5] was “S”, the “growth inhibition” value [1, 6] was “S” and the “growth inhibition” value [1, 7] was “S”. For the same compound, the “growth inhibition” value [1, 8] was “R”, the “growth inhibition” value [1, 9] was “R” and the “growth inhibition” value [1, 10] was “I”. The “growth inhibition” value [1, 11] was “S”, the “growth inhibition” value [1, 12] was “S” and the “growth inhibition” value [1, 13] was “S”. For the same compound, the “growth inhibition” value [1, 14] was “S”, the “growth inhibition” value [1, 15] was “R” and the “growth inhibition” value [1, 16] was “R”. The “growth inhibition” value [1, 17] was “I”, the “growth inhibition” value [1, 18] was “S” and the “growth inhibition” value [1, 19] was “S”. For the same compound, the “growth inhibition” value [1, 20] was “S”, the “growth inhibition” value [1, 21] was “S” and the “growth inhibition” value [1, 22] was “R”. For the same compound, the “growth inhibition” value [1, 23] was “I”, the “growth inhibition” value [1, 24] was “S” and the “growth inhibition” value [1, 25] was “S”. For the same compound, the “growth inhibition” value [1, 26] was “S”, the “growth inhibition” value [1, 27] was “S” and the “growth inhibition” value [1, 28] was “S”. The “growth inhibition” value [1, 29] was “R”, the “growth inhibition” value [1, 30] was “I” and the “growth inhibition” value [1, 31] was “I”. For the same compound, the “growth inhibition” value [1, 32] was “S”, the “growth inhibition” value [1, 33] was “S” and the “growth inhibition” value [1, 34] was “S”. For the same compound, the “growth inhibition” value [1, 35] was “S”, the “growth inhibition” value [1, 36] was “R” and the “growth inhibitory effect of compound alone on M. tuberculosis H37Rv” value [1] was “do not show any growth inhibitory effect”. For the same compound, the “growth of M. tuberculosis H37Rv in the presence of sub-inhibitory ethionamide concentrations” value [1] was “dose-dependently inhibited”, the remaining activity at 0.5 µM (EthR-VP16) was 28.3 ± 1.26% and the remaining activity at 1.5 µM (EthR-VP16) was 27.2 ± 0.46%. It also gave a remaining activity at 3 µM (EthR-VP16) of 19.9 ± 0.43%, a remaining activity at 6 µM (EthR-VP16) of 13.5 ± 2.96% and a remaining activity at 15 µM (EthR-VP16) of 11.8 ± 2.6%. The remaining activity at 30 µM (EthR-VP16) was 11.4 ± 2.51%, the remaining activity at 60 µM (EthR-VP16) was 2.82 ± 0.62% and the remaining activity at 300 µM (EthR-VP16) was 0.85 ± 0.18%.
In the case of O=C(Cc1ccccc1)N1CCC(c2ccccc2)C1 (stereo not drawn) [Example 17, 2-Phenyl-1-(3-phenylpyrrolidin-1-yl)ethan-1-one], the “growth inhibition” value [1, 2] is reported as “R”, the “growth inhibition” value [1, 3] is reported as “R” and the “growth inhibition” value [1, 4] is reported as “R”. The “growth inhibition” value [1, 5] was “R”, the “growth inhibition” value [1, 6] was “I” and the “growth inhibition” value [1, 7] was “S”. The “growth inhibition” value [1, 8] was “R”, the “growth inhibition” value [1, 9] was “R” and the “growth inhibition” value [1, 10] was “R”. The “growth inhibition” value [1, 11] was “R”, the “growth inhibition” value [1, 12] was “I” and the “growth inhibition” value [1, 13] was “S”. For the same compound, the “growth inhibition” value [1, 14] was “S”, the “growth inhibition” value [1, 15] was “R” and the “growth inhibition” value [1, 16] was “R”. The “growth inhibition” value [1, 17] was “R”, the “growth inhibition” value [1, 18] was “R” and the “growth inhibition” value [1, 19] was “I”. For the same compound, the “growth inhibition” value [1, 20] was “S”, the “growth inhibition” value [1, 21] was “S” and the “growth inhibition” value [1, 22] was “R”. For the same compound, the “growth inhibition” value [1, 23] was “R”, the “growth inhibition” value [1, 24] was “R” and the “growth inhibition” value [1, 25] was “I”. The “growth inhibition” value [1, 26] was “I”, the “growth inhibition” value [1, 27] was “S” and the “growth inhibition” value [1, 28] was “S”. For the same compound, the “growth inhibition” value [1, 29] was “R”, the “growth inhibition” value [1, 30] was “R” and the “growth inhibition” value [1, 31] was “R”. For the same compound, the “growth inhibition” value [1, 32] was “S”, the “growth inhibition” value [1, 33] was “S” and the “growth inhibition” value [1, 34] was “S”. The “growth inhibition” value [1, 35] was “S”, the “growth inhibition” value [1, 36] was “R” and the “growth inhibitory effect of compound alone on M. tuberculosis H37Rv” value [1] was “do not show any growth inhibitory effect”. For the same compound, the “growth of M. tuberculosis H37Rv in the presence of sub-inhibitory ethionamide concentrations” value [1] was “dose-dependently inhibited”, the remaining activity at 0.5 µM (EthR-VP16) was 38.5 ± 8.47% and the remaining activity at 1.5 µM (EthR-VP16) was 35.5 ± 7.81%. It also gave a remaining activity at 3 µM (EthR-VP16) of 22.5 ± 4.94%, a remaining activity at 6 µM (EthR-VP16) of 16.3 ± 3.58% and a remaining activity at 15 µM (EthR-VP16) of 14.2 ± 3.13%. For the same compound, the remaining activity at 30 µM (EthR-VP16) was 11.5 ± 8.52%, the remaining activity at 60 µM (EthR-VP16) was 1.86 ± 0.4% and the remaining activity at 300 µM (EthR-VP16) was 0.83 ± 0.18%.
